Consider 3 compounds from patent publication US6429312B2, “N-aminoalkyldibenzothiopencarboxamide receptor subtype specific ligands” (Neurogen Corporation, priority 1996, dated 2002).

As a reminder, the melting point is the temperature of the solid-liquid transition. One may read the Ki as a measure of affinity in units of concentration, obtained from inhibition or displacement.

Where a name gives a salt, the structure may show the parent alone. Read-outs that look alike come from different tables or passages of the source.

The target in data set [1] is T1, D3 receptors (Chlorocebus aethiops, UniProt P52703).
T1 construct: expressed in transfected cells; host or cells: COS cells
Description: D3 receptor binding assay (3H-YM 09151-2 displacement). The arrangement: species or system African Green monkey. The protocol:
(§1) ASSAY FOR D2 AND D3 RECEPTOR BINDING ACTIVITY
(§2) Pellets of COS cells containing recombinantly produced D2 or D3 receptors from African Green monkey were used for the assays. The sample is homogenized in 100 volumes (w/vol) of 0.05 M Tris HCl buffer at 4° C. and pH 7.4. The sample is then centrifuged at 30,000×g and resuspended and rehomogenized. The sample is then centrifuged as described and the final tissue sample is frozen until use. The tissue is resuspended 1:20 (wt/vol) in 0.05 M Tris HCl buffer containing 100 mM NaCl.
(§3) Incubations are carried out at 48° C. and contain 0.4 ml of tissue sample, 0.5 nM ^3H-YM 09151-2 and the compound of interest in a total incubation of 1.0 ml. Nonspecific binding is defined as that binding found in the presence of […] spiperone; without further additions, nonspecific binding is less than 20% of total binding. The binding characteristics of representative compounds of the invention for D2 and D3 receptor subtypes are shown in Table 2 for rat striatal homogenates.

In data set [2] the target is T2, D2 receptors (Chlorocebus aethiops, UniProt P52702).
T2 construct: expressed in transfected cells; host or cells: COS cells
Description: D2 receptor binding assay (3H-YM 09151-2 displacement). Also on record: species or system African Green monkey. The protocol: as §1, §2, §3

T2 sequence (P52702 whole entry): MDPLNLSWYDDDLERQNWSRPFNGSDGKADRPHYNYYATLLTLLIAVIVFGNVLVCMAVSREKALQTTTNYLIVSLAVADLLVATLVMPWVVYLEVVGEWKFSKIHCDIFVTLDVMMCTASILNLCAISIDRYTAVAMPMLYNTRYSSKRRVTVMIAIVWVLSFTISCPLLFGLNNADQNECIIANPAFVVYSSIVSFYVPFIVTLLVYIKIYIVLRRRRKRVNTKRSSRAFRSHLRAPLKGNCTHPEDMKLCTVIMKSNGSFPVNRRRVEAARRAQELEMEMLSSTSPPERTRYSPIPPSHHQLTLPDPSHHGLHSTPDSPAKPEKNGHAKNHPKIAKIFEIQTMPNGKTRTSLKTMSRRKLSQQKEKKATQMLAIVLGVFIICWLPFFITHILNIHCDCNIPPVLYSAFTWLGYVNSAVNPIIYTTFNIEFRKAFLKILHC
T1 sequence (P52703 whole entry): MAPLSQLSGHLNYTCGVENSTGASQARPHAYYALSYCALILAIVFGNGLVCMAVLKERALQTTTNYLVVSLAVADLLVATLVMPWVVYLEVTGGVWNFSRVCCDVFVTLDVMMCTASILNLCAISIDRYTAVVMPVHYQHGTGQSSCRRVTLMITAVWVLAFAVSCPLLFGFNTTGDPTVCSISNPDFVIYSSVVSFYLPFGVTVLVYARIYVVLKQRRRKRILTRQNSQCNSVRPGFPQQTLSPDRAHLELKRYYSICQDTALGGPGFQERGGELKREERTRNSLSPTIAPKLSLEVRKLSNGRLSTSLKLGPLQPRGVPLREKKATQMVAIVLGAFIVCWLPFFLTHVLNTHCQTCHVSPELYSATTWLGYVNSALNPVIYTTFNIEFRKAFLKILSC

Compound `O=C(NCCCCN1CCN(c2cccc3ccccc23)CC1)c1ccc2sc3ccccc3c2c1` (as salt: hydrochloride) [Compound 2, N-(1-{4-[4-(1-Naphthyl)piperazin-1-yl]}butyl)-2-dibenzothiophenecarboxamide hydrochloride] displayed a melting point of 225 to 228 °C.
As to `O=C(NCCCCN1CCN(c2cccc(Cl)c2Cl)CC1)c1ccc2sc3ccccc3c2c1` [Compound 1, N-(1-{4-[4-(2,3-Dichlorophenyl)piperazin-1-yl]}butyl)-2-dibenzothiophenecarboxamide hydrochloride], the Ki in data set [1] turned out to be 3.5 nM; in data set [2], 285 nM.
With `O=C(NCCCCN1CCN(c2cccc3ccccc23)CC1)c1ccc2sc3ccccc3c2c1` [Compound 2, N-(1-{4-[4-(1-Naphthyl)piperazin-1-yl]}butyl)-2-dibenzothiophenecarboxamide hydrochloride], the Ki amounted to 5 nM in data set [1] (COS cells containing recombinantly produced D3 receptors, 0.5 nM 3H-YM 09151-2, nonspecific binding with 1 mM spiperone, read-out: D3 Ki) and 242 nM in data set [2] (COS cells containing recombinantly produced D2 receptors, 0.5 nM 3H-YM 09151-2, nonspecific binding with 1 mM spiperone, read-out: D2 Ki).
